Each structure is given as a SMILES string.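 Briefly, cells in 96-well plates were exposed to five compound concentrations for 48 h, and endpoints were estimated by linear interpolation. GI50 = concentration required for 50% inhibition of growth. TGI: total growth inhibition.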

Some test systems named below: A549 NSCLC; COLO 205 colon; HCT-116 colon; HCT-15 colon; HOP-62 NSCLC; NCI-H522 lung; SF-295 CNS; SK-MEL-2 melanoma; SN12C renal; SNB-19 CNS.
Common to all, as to assay: NCI-60 cell line screen, 48 h

Regarding `OCCN1CCCN(CCCN2c3ccccc3Sc3ccc(C(F)(F)F)cc32)CC1`, the GI50 with A549 NSCLC was 4.69 µM; in the test with COLO 205 colon it was 1940 nM; in the test with HCT-116 colon, 2100 nM; with HCT-15 colon, 2740 nM; with HOP-62 NSCLC, 2250 nM; in the test on NCI-H522 lung, 3.23 µM. Further, the GI50 is 1760 nM in the test with SF-295 CNS, 2.07 µM in the test with SK-MEL-2 melanoma, 4.5 µM in the test with SN12C renal and 2840 nM in the test with SNB-19 CNS. For the same molecule, the TGI in the test with A549 NSCLC came out at 15.6 µM; in the test with COLO 205 colon, 3.68 µM; with HCT-116 colon it was 4.49 µM; in the test on HCT-15 colon it was 10.3 µM; in the test on HOP-62 NSCLC, 5.05 µM; in the test with NCI-H522 lung, 14 µM. The TGI turned out to be 3.74 µM in the test on SF-295 CNS, 4.08 µM with SK-MEL-2 melanoma, 18.5 µM in the test with SN12C renal and 11.7 µM in the test on SNB-19 CNS.

As for `NC(=O)C1C(=O)Oc2cccnc21` (configuration not stated), the TGI in the test with A549 NSCLC, in the test on COLO 205 colon, with HCT-116 colon, in the test on HCT-15 colon, with HOP-62 NSCLC and in the test with NCI-H522 lung was more than 100 µM each time. Moreover, the TGI in the test with SF-295 CNS, with SN12C renal and in the test on SNB-19 CNS was more than 100 µM throughout.

Take `O=C(NCCOC(=O)CCCCCCCCC(=O)OCCNC(=O)NC(=O)c1cn(Cc2ccccc2)c(=O)[nH]c1=O)NC(=O)c1cn(Cc2ccccc2)c(=O)[nH]c1=O`: the TGI in the test with A549 NSCLC, in the test on COLO 205 colon, in the test on HCT-116 colon, in the test with HCT-15 colon, in the test on HOP-62 NSCLC and with NCI-H522 lung was more than 100 µM in each case. The TGI with SF-295 CNS, in the test with SK-MEL-2 melanoma, in the test on SN12C renal and in the test on SNB-19 CNS was more than 100 µM in each case.

In the case of `COc1cc2c(c(OC)c1OC)-c1ccc(SC)c(=O)cc1C(CC(=O)Oc1ccccc1F)C2` (configuration not stated), the TGI in the test with A549 NSCLC was more than 7.5 µM; with COLO 205 colon, 0.0376 µM; in the test on HCT-116 colon, 0.0644 µM; with HCT-15 colon, 0.248 µM; with HOP-62 NSCLC, more than 7.5 µM; with NCI-H522 lung it was 0.0307 µM. The TGI was more than 7.5 µM with SF-295 CNS, 0.125 µM in the test on SK-MEL-2 melanoma, more than 7.5 µM in the test with SN12C renal and more than 7.5 µM in the test on SNB-19 CNS.

Turning to `CN(C)CCC(/C=C/c1ccccc1)=N\Nc1c(F)c(F)c(F)c(F)c1F`, the TGI with A549 NSCLC, in the test with COLO 205 colon, in the test with HCT-116 colon, in the test on HCT-15 colon, in the test with HOP-62 NSCLC and in the test with NCI-H522 lung was more than 100 µM throughout. Besides, the TGI in the test with SF-295 CNS, in the test with SK-MEL-2 melanoma, in the test with SN12C renal and in the test on SNB-19 CNS was more than 100 µM each time.

Take `O=C(Cn1ccnc1[N+](=O)[O-])NCc1ccc(F)cc1`: the TGI with A549 NSCLC, with COLO 205 colon, in the test with HCT-15 colon, in the test on HOP-62 NSCLC, in the test on NCI-H522 lung and in the test on SF-295 CNS was more than 100 µM throughout. For the same molecule, the TGI in the test on SK-MEL-2 melanoma, with SN12C renal and with SNB-19 CNS was more than 100 µM in each case.

`O=c1ccc(=O)c2c1c1[nH]c3ccccc3c1c1c(=O)c3ccccc3c(=O)c21`: the TGI in the test with A549 NSCLC, with COLO 205 colon, with HCT-116 colon, in the test on HCT-15 colon, in the test with HOP-62 NSCLC and with NCI-H522 lung was more than 10 µM in each case. In addition, the TGI in the test on SF-295 CNS, in the test on SK-MEL-2 melanoma, in the test on SN12C renal and with SNB-19 CNS was more than 10 µM throughout.

For the molecule `COc1ccc(C2=NOC3=c4ccccc4=CSC3=C2c2ccccc2)cc1`, the GI50 in the test with A549 NSCLC was more than 100 µM; with COLO 205 colon, 48700 nM; in the test with HCT-116 colon, 12800 nM; in the test with HCT-15 colon, 22300 nM; with HOP-62 NSCLC it was 17300 nM; with NCI-H522 lung it was more than 100 µM. Further, the GI50 was 48900 nM in the test on SF-295 CNS, 75.3 µM with SK-MEL-2 melanoma, 22 µM in the test on SN12C renal and 34700 nM with SNB-19 CNS. Besides, the TGI with A549 NSCLC, in the test with COLO 205 colon, in the test with HCT-116 colon, in the test on HCT-15 colon, in the test with HOP-62 NSCLC and in the test with NCI-H522 lung was more than 100 µM throughout. Further, the TGI in the test on SF-295 CNS is more than 100 µM; with SK-MEL-2 melanoma, more than 100 µM; with SN12C renal, 68.9 µM; with SNB-19 CNS, more than 100 µM.

As for `Clc1cc(Cl)cc(Nc2ccc3c(OCCCN4CCOCC4)cccc3n2)c1`, the GI50 in the test on A549 NSCLC was 2.6 µM; in the test on COLO 205 colon it was 1770 nM; in the test with HCT-116 colon it was 1820 nM; with HCT-15 colon, 1750 nM; in the test with HOP-62 NSCLC, 2290 nM; in the test with NCI-H522 lung, 1.82 µM. In addition, the GI50 with SF-295 CNS is 1920 nM; with SK-MEL-2 melanoma, 3.45 µM; in the test with SN12C renal it was 10.8 µM; in the test on SNB-19 CNS, 2080 nM. For the same molecule, the TGI in the test on A549 NSCLC stood at 6.87 µM; with COLO 205 colon it was 3.56 µM; in the test on HCT-116 colon, 3.56 µM; in the test on HCT-15 colon, 3.52 µM; with HOP-62 NSCLC, 7.03 µM; in the test with NCI-H522 lung, 3.57 µM. Further, the TGI with SF-295 CNS stood at 4.06 µM; with SK-MEL-2 melanoma, 9.51 µM; in the test on SN12C renal it was 26.8 µM; in the test on SNB-19 CNS, 4.39 µM.

`COc1cc([C@H]2c3cc4c(cc3[C@H](NCc3ccc(F)cc3)C3COC(=O)[C@H]32)OCO4)cc(OC)c1O` (some centres not stated): the TGI in the test on COLO 205 colon amounted to 31.5 µM; with HCT-116 colon it was 23.1 µM; in the test on HCT-15 colon, 16.2 µM; in the test on HOP-62 NSCLC it was 3.82 µM; with NCI-H522 lung, 9.48 µM; with SF-295 CNS, 17.9 µM. Besides, the TGI in the test with SK-MEL-2 melanoma was 33.1 µM; with SN12C renal, 6.67 µM; in the test with SNB-19 CNS, 51.2 µM.
